Calls of active or inactive are those of the source. No cut-off for these calls is given here.
Key:
[1] = Agonist activity at muscarinic receptor in M4 receptor knock out mouse hippocampal CA1 pyramidal neuron assessed as reduction of excitatory postsynaptic current amplitude at 5 uM by whole-cell electrophysiology in presence of carbachol relative to control; format: functional; conditions: Hippocampus
[2] = biological target: T1, Muscarinic acetylcholine receptor M4 (Rattus norvegicus) (UniProt P08485); assay: Agonist activity at muscarinic M4 receptor in Sprague-Dawley rat hippocampal CA1 pyramidal neuron assessed as reduction of inhibitory postsynaptic current at 100 uM by whole-cell electrophysiology relative to control; format: functional, tissue-based; conditions: Hippocampus
T1 sequence (whole entry): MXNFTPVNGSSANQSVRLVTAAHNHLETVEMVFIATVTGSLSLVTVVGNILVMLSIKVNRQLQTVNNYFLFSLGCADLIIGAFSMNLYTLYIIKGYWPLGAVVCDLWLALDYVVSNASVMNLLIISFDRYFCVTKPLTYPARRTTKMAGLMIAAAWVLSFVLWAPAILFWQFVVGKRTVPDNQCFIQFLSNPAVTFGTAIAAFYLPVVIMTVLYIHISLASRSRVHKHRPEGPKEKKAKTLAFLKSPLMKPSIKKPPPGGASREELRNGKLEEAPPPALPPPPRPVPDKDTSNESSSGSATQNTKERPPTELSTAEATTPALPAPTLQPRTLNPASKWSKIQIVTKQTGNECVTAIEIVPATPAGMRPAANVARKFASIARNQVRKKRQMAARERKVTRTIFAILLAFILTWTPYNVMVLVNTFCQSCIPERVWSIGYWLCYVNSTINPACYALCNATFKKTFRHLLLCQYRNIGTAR

[3] = biological target: T1, Muscarinic acetylcholine receptor M4 (Rattus norvegicus); assay: Agonist activity at muscarinic M4 receptor in Sprague-Dawley rat hippocampal CA1 pyramidal neuron assessed as reduction of inhibitory postsynaptic current at 0.5 uM by whole-cell electrophysiology relative to control; format: functional, tissue-based; conditions: Hippocampus
[4] = Agonist activity at muscarinic receptor in M4 receptor knock out mouse hippocampal CA1 pyramidal neuron assessed as reduction of inhibitory postsynaptic current amplitude at 2 uM by whole-cell electrophysiology in presence of carbachol relative to control; format: functional; conditions: Hippocampus
[5] = biological target: Muscarinic acetylcholine receptor M3 (Rattus norvegicus) (UniProt P08483); assay: Allosteric activation of rat recombinant muscarinic M3 receptor expressed in CHO cells assessed as potentiation of acetylcholine-induced calcium mobilization at 10 uM after 1 hr by fluorescence assay; format: functional, cell-based
[6] = biological target: T2, Muscarinic acetylcholine receptor M4 (Rattus norvegicus, UniProt P08485); assay: Allosteric activation of rat recombinant muscarinic M4 receptor expressed in CHO cells assessed as potentiation of 10 uM acetylcholine-induced calcium mobilization after 1 hr by fluorescence assay; format: functional, cell-based
T2 sequence (P08485 whole entry): T1 sequence (whole entry)

CHO [7] = assay: Antagonist activity at P2Y1 receptor in CHO cells assessed as calcium mobilization at 10 uM after 1 hr by fluorescence assay; format: functional, cell-based; conditions: Cricetulus griseus
CHO [8] = assay: Allosteric activation at P2Y1 receptor in CHO cells assessed as potentiation of acetylcholine-induced calcium mobilization at 10 uM after 1 hr by fluorescence assay; format: cell-based; conditions: Cricetulus griseus
[9] = biological target: T3, Muscarinic acetylcholine receptor M5 (Rattus norvegicus) (UniProt P08911); assay: Agonist activity at rat recombinant muscarinic M5 receptor expressed in CHO cells assessed as induction of calcium mobilization at 10 uM after 1 hr by fluorescence assay; format: functional, cell-based
T3 sequence (whole entry): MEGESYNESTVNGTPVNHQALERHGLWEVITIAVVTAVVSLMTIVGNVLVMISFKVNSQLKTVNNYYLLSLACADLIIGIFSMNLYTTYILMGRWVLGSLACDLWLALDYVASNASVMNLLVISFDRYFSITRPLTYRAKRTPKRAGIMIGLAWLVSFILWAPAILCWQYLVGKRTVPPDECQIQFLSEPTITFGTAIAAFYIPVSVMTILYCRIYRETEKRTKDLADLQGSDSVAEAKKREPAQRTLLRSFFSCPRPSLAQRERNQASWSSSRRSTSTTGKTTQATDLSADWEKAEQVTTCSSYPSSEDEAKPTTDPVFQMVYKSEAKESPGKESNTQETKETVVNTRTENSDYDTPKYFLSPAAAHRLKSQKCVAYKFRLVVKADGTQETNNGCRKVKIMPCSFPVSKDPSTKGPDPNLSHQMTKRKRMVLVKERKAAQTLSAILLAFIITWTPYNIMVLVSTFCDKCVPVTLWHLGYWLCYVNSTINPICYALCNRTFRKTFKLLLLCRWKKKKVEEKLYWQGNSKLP

[10] = biological target: T1, Muscarinic acetylcholine receptor M4 (Rattus norvegicus); assay: Displacement of [3H]NMS from rat recombinant muscarinic M4 receptor expressed in CHO cells up to 30 uM after 2 hrs by microplate scintillation counting; format: cell-based
[11] = biological target: T3, Muscarinic acetylcholine receptor M5 (Rattus norvegicus); assay: Displacement of [3H]NMS from rat recombinant muscarinic M5 receptor expressed in CHO cells after 2 hrs by microplate scintillation counting; format: cell-based
[12] = biological target: T1, Muscarinic acetylcholine receptor M4 (Rattus norvegicus); assay: Agonist activity at muscarinic M4 receptor in Sprague-Dawley rat hippocampal CA1 pyramidal neuron assessed as reduction of excitatory postsynaptic current at 100 uM by whole-cell electrophysiology relative to control; format: functional, tissue-based; conditions: Hippocampus
[13] = biological target: T1, Muscarinic acetylcholine receptor M4 (Rattus norvegicus); assay: Agonist activity at muscarinic M4 receptor in Sprague-Dawley rat hippocampal CA1 pyramidal neuron assessed as excitatory postsynaptic current amplitude at 5 uM by whole-cell electrophysiology relative to control; format: functional, tissue-based; conditions: Hippocampus
[14] = biological target: T1, Muscarinic acetylcholine receptor M4 (Rattus norvegicus); assay: Agonist activity at muscarinic M4 receptor in Sprague-Dawley rat hippocampal CA1 pyramidal neuron assessed as increase in carbachol-induced reduction in excitatory postsynaptic current at 5 uM by whole-cell electrophysiology relative to control; format: functional, tissue-based; set-up: scale not given: the % may be the effect or the level left; conditions: Hippocampus
[15] = biological target: T1, Muscarinic acetylcholine receptor M4 (Rattus norvegicus); assay: Agonist activity at muscarinic M4 receptor in Sprague-Dawley rat hippocampal CA1 pyramidal neuron assessed as increase in carbachol-induced reduction in excitatory postsynaptic current at 10 uM by whole-cell electrophysiology relative to control; format: functional, tissue-based; set-up: scale not given: the % may be the effect or the level left; conditions: Hippocampus
[16] = biological target: T4, Muscarinic acetylcholine receptor M4 (Mus musculus) (UniProt P32211); assay: Agonist activity at muscarinic M4 receptor in wild type mouse hippocampal CA1 pyramidal neuron assessed as reduction of excitatory postsynaptic current at 100 uM by whole-cell electrophysiology relative to control; format: functional, tissue-based; conditions: Hippocampus
T4 sequence (whole entry): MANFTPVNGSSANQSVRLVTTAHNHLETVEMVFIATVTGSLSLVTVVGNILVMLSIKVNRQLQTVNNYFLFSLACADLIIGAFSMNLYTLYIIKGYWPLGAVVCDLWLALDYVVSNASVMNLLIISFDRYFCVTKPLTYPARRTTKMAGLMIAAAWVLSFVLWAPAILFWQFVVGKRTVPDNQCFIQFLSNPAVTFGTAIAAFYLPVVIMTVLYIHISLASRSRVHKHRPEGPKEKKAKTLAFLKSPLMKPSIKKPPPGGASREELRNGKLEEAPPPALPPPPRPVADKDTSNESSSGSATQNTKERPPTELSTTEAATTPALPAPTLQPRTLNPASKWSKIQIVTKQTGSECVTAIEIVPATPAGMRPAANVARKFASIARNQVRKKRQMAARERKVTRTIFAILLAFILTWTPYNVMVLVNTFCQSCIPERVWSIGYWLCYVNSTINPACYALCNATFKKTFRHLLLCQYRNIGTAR

[17] = biological target: T4, Muscarinic acetylcholine receptor M4 (Mus musculus); assay: Agonist activity at muscarinic M4 receptor in wild type mouse hippocampal CA1 pyramidal neuron assessed as reduction of excitatory postsynaptic current at 2 uM by whole-cell electrophysiology relative to control; format: functional, tissue-based; conditions: Hippocampus
[18] = biological target: T4, Muscarinic acetylcholine receptor M4 (Mus musculus); assay: Agonist activity at muscarinic M4 receptor in wild type mouse hippocampal CA1 pyramidal neuron assessed as increase in carbachol-induced reduction in excitatory postsynaptic current at 5 uM by whole-cell electrophysiology relative to control; format: functional, tissue-based; set-up: scale not given: the % may be the effect or the level left; conditions: Hippocampus

Chain of Muscarinic acetylcholine receptor M3 (Rattus norvegicus) (P08483 whole entry, looked up): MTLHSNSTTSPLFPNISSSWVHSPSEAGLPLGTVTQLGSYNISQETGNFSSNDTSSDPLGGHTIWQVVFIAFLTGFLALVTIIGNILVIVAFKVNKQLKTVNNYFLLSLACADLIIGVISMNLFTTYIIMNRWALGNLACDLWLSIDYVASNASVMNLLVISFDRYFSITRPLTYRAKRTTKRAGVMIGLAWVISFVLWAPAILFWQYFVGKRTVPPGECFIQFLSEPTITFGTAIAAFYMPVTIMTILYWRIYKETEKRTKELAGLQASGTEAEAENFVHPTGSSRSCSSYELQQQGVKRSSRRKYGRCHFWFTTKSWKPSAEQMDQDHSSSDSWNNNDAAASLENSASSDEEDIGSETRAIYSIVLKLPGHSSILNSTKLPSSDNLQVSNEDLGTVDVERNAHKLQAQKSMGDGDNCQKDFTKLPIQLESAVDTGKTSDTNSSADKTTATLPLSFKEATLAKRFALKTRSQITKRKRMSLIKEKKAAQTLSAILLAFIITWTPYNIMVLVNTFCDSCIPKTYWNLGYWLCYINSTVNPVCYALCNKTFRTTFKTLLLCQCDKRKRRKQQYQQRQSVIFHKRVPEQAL

In the case of `Cc1cc(C)c2c(N)c(C(=O)NCc3ccc(Cl)cc3)sc2n1`, the inhibition at 5 µM [1] is reported as 77.5%, the inhibition [2] is reported as 10.9% and the inhibition [3] is reported as 62.2%. For the same compound, the inhibition at 2 µM [4] was 60.2%, the Activity [5] was “inactive” and the EC50 [6] was 400 nM. The Activity (CHO [7]) was “inactive”, the Activity (CHO [8]) was “inactive” and the Activity [9] was “inactive”. For the same compound, the Activity [10] was “inactive”, the Activity [11] was “inactive” and the inhibition [12] was 16.1%. It also gave an Activity [13] of 108%, an Activity [14] of 36.9% and an Activity [15] of 42.7%. It also gave an inhibition [16] of 18%, an inhibition [17] of 53.7% and an Activity [18] of 39.8%.
